Laboratory results from ChEMBL document CHEMBL4043231, “Discovery of highly potent, selective, covalent inhibitors of JAK3” (Bioorg Med Chem Lett, 2017).
Active and inactive are the calls of the source. The calls are words filed in the database; no cut-off is given here.

Tests used:
[1] = target: Tyrosine-protein kinase JAK1 (Homo sapiens, UniProt P23458); assay: Inhibition of GST-tagged JAK1 (unknown origin) using fluoresceinated peptide as substrate after 3 hrs by caliper assay
[2] = target: T1, Tyrosine-protein kinase JAK2 (Homo sapiens, UniProt O60674); assay: Inhibition of GST-tagged JAK2 (unknown origin) using fluoresceinated peptide as substrate after 3 hrs by caliper assay
T1 sequence (O60674 whole entry): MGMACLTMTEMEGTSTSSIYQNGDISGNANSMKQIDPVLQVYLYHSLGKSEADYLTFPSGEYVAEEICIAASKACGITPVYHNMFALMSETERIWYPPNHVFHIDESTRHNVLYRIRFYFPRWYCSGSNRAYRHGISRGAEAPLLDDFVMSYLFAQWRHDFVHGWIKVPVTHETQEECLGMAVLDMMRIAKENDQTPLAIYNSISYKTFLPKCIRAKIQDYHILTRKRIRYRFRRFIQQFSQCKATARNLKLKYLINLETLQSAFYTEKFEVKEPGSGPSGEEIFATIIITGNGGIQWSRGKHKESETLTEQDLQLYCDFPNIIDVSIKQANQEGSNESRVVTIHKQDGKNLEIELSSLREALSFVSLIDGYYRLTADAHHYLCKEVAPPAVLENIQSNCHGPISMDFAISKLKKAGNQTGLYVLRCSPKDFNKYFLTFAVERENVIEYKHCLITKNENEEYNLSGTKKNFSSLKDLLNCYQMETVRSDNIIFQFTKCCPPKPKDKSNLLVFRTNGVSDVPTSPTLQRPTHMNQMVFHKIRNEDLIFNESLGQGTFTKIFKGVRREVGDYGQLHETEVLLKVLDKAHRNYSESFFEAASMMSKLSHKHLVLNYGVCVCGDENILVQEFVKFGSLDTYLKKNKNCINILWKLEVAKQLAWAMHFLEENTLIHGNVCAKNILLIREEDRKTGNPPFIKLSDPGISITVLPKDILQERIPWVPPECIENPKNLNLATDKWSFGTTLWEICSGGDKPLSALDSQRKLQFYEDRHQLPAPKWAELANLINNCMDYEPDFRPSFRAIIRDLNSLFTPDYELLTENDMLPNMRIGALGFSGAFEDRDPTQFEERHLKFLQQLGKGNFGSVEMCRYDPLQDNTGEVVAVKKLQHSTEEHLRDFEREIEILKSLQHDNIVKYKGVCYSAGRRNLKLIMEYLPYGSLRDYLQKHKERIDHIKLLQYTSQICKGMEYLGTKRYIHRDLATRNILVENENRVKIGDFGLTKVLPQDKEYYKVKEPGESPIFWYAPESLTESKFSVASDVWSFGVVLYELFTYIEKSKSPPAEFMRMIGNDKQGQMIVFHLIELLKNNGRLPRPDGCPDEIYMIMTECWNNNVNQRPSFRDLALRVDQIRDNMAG

[3] = target: T2, Tyrosine-protein kinase JAK3 (Homo sapiens, UniProt P52333); assay: Inhibition of JAK3 (unknown origin) using CSKtide as substrate after 30 mins in presence of [gamma32P]ATP by top-count liquid scintillation counting method
T2 sequence (P52333 whole entry): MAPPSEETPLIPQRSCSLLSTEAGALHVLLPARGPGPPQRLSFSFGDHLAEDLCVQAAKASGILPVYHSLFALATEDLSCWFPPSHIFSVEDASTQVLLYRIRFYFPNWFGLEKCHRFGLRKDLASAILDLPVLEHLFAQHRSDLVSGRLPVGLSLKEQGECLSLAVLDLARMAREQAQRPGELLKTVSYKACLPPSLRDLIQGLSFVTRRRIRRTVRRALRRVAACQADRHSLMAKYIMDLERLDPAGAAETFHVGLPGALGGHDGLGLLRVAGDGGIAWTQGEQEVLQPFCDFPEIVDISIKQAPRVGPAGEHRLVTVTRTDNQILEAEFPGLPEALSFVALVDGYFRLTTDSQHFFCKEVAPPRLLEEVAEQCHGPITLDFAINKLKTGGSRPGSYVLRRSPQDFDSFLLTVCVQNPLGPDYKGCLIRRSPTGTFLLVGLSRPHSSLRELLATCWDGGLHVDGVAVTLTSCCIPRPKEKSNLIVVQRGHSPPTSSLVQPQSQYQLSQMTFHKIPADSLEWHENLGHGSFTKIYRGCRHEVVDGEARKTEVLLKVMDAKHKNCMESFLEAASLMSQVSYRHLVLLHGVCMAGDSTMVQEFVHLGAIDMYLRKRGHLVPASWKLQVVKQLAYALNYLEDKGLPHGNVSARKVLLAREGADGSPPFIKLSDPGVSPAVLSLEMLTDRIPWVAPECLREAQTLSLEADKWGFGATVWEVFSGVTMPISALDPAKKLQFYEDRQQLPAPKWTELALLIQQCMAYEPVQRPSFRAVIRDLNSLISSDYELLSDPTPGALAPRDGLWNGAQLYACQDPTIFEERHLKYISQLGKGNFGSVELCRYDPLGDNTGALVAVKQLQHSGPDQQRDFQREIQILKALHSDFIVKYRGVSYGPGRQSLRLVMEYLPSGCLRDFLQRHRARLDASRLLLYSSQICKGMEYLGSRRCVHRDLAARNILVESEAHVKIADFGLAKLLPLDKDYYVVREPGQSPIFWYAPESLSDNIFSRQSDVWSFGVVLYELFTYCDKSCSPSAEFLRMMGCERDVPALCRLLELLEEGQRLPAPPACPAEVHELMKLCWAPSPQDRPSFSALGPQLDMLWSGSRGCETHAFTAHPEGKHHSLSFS

[4] = target: Non-receptor tyrosine-protein kinase TYK2 (Homo sapiens, UniProt P29597); assay: Inhibition of His-tagged TYK2 (unknown origin) using fluoresceinated peptide as substrate after 3 hrs by caliper assay
Sequence of Non-receptor tyrosine-protein kinase TYK2 (P29597 whole entry): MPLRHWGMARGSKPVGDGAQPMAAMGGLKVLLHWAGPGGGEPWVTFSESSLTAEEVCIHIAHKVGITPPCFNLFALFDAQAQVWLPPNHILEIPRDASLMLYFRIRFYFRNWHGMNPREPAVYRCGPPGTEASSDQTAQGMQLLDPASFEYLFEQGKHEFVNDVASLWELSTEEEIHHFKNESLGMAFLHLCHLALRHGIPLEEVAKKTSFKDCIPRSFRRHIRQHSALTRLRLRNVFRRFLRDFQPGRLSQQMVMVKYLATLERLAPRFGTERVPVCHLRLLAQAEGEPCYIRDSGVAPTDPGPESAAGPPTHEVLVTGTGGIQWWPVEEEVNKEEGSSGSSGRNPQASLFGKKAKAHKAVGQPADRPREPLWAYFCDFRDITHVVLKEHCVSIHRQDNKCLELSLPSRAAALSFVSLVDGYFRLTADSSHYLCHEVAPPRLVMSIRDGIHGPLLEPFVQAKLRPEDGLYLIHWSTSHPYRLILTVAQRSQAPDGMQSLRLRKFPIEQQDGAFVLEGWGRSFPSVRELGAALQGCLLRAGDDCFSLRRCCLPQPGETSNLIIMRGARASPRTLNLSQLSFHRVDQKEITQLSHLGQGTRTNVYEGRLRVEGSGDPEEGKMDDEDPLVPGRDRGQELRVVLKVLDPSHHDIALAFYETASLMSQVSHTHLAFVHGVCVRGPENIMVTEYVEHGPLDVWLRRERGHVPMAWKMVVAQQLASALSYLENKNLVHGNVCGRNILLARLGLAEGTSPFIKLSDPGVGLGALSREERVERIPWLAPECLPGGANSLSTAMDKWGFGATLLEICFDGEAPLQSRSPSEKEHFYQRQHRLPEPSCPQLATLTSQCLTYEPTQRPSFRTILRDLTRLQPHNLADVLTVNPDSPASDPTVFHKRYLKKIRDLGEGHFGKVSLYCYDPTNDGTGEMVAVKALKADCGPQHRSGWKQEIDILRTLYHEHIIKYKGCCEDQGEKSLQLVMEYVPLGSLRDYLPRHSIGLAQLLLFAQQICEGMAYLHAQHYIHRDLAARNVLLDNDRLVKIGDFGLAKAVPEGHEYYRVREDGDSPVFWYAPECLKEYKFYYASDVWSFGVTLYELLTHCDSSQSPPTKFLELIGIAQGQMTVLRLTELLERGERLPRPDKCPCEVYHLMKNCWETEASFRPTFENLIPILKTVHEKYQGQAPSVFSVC

T-cell = assay: Inhibition of IL-2 induced cell proliferation in human PBMC derived T cells pretreated for 60 mins followed by IL-2 addition measured after 3 days by [3H]thymidine incorporation assay; type: functional, cell-based
[5] = target: T3, Tyrosine-protein kinase JAK3 (Homo sapiens) (UniProt P52333); assay: Inhibition of JAK3 (unknown origin) using CSKtide as substrate pretreated measured after 30 mins in presence of [gamma32P]ATP by top-count liquid scintillation counting method
T3 sequence (whole entry): T2 sequence (P52333 whole entry)

JAK3/JAK1 = JAK3/JAK1 (Homo sapiens, UniProt P23458+P52333); assay: Inhibition of JAK1/JAK3 in human PBMC derived T cell assessed as reduction in IL2-induced STAT3 phosphorylation after 30 mins by ELISA; type: protein-complex assay
Blood = assay: Inhibition of IL2-induced IFNgamma production in human whole blood; type: functional
[6] = target: T1, Tyrosine-protein kinase JAK2; assay: Inhibition of JAK2 in human TF1 cells assessed as reduction in EPO-induced STAT5A phosphorylation pretreated for 30 mins followed by EPO addition measured after 10 mins by ELISA; type: cell-based
JAK1/TYK2 = JAK1/TYK2 (Homo sapiens, UniProt P23458+P29597); assay: Inhibition of JAK1/TYK2 in human PBMC derived T cell assessed as reduction in IFNa2a-induced STAT3 phosphorylation after 30 mins by ELISA; type: protein-complex assay
[7] = target: Macrophage colony-stimulating factor 1 receptor (Homo sapiens, UniProt P07333); assay: Inhibition of FMS (unknown origin) by caliper assay
Sequence of Macrophage colony-stimulating factor 1 receptor (P07333 whole entry): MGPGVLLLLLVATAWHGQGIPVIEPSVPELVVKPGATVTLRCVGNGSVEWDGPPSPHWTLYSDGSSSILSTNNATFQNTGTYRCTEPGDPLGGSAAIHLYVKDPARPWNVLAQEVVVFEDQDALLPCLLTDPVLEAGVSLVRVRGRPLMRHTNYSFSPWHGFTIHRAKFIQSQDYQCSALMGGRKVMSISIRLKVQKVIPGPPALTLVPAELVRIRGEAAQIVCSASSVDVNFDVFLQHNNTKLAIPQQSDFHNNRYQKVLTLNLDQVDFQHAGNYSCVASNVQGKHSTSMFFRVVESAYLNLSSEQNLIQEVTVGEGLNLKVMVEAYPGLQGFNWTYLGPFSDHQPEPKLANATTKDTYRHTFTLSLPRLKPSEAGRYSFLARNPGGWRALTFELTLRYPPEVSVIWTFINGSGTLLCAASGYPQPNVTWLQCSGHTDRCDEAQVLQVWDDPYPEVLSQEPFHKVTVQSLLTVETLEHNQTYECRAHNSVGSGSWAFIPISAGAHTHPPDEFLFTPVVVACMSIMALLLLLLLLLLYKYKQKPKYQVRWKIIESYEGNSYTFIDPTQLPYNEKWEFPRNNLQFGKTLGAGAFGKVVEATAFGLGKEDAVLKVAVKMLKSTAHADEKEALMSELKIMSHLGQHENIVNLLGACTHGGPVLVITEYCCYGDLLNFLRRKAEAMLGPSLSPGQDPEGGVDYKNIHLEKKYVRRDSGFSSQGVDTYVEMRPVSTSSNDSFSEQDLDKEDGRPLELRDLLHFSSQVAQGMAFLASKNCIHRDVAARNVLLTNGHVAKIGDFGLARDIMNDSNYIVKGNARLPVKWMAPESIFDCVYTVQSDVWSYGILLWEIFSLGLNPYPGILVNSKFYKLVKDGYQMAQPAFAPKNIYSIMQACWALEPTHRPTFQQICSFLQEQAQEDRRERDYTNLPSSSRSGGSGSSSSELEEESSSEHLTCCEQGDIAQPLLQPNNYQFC

[8] = target: T4, Tyrosine-protein kinase BTK (Homo sapiens, UniProt Q06187); assay: Inhibition of full length human His-tagged BTK expressed in baculovirus expression system using GEEPLYWSFPAKKK-NH2 as substrate measured after 10 mins in presence of ATP by topcount scintillation counting analysis
T4 sequence (Q06187 whole entry): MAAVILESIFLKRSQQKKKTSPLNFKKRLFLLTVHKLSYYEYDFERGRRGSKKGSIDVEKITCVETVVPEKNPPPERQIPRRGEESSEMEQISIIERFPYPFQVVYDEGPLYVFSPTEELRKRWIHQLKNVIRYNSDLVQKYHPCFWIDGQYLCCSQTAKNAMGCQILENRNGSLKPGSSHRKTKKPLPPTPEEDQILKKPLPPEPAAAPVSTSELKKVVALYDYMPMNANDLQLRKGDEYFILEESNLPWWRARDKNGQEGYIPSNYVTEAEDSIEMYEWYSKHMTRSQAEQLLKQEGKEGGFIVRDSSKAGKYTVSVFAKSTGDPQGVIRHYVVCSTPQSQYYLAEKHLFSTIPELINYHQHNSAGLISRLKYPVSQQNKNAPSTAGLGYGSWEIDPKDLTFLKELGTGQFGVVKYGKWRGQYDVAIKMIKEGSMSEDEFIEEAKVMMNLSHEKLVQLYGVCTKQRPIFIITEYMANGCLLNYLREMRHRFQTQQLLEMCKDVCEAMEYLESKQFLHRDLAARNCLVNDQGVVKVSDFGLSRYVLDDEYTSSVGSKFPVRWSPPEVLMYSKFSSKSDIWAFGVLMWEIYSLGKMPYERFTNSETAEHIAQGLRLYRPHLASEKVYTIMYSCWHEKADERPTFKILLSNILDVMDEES

[9] = target: Epidermal growth factor receptor (Homo sapiens, UniProt P00533); assay: Inhibition of EGFR (unknown origin) by caliper assay
[10] = target: T4, Tyrosine-protein kinase BTK; assay: Inhibition of full length human His-tagged BTK expressed in baculovirus expression system using GEEPLYWSFPAKKK-NH2 as substrate measured immediately in presence of ATP by topcount scintillation counting analysis
[11] = target: T4, Tyrosine-protein kinase BTK; assay: Inhibition of full length human His-tagged BTK expressed in baculovirus expression system using GEEPLYWSFPAKKK-NH2 as substrate pretreated for 15 mins followed by ATP addition measured after 10 mins by topcount scintillation counting analysis
[12] = target: T4, Tyrosine-protein kinase BTK; assay: Inhibition of full length human His-tagged BTK expressed in baculovirus expression system using GEEPLYWSFPAKKK-NH2 as substrate pretreated for 45 mins followed by ATP addition measured after 10 mins by topcount scintillation counting analysis
[13] = target: T4, Tyrosine-protein kinase BTK; assay: Inhibition of full length human His-tagged BTK expressed in baculovirus expression system using GEEPLYWSFPAKKK-NH2 as substrate pretreated for 120 mins followed by ATP addition measured after 10 mins by topcount scintillation counting analysis
[14] = target: T4, Tyrosine-protein kinase BTK; assay: Time-dependent inhibition of full length human His-tagged BTK expressed in baculovirus expression system using GEEPLYWSFPAKKK-NH2 as substrate by topcount scintillation counting analysis
[15] = target: T4, Tyrosine-protein kinase BTK; assay: Inhibition of BTK in goat anti-human IgM F(ab')2-stimulated human whole blood assessed as suppression of BCR-induced CD69 expression on B cells after 18 hrs by FACS analysis
[16] = Bioavailability in mouse; type: ADME, organism-based; conditions: in vivo
[17] = target: T3, Tyrosine-protein kinase JAK3 (Homo sapiens)
Description: Time-dependent inhibition of JAK3 (unknown origin) using CSKtide as substrate in presence of [gamma32P]ATP by top-count liquid scintillation counting method

Sequence of Tyrosine-protein kinase JAK1 (P23458 whole entry): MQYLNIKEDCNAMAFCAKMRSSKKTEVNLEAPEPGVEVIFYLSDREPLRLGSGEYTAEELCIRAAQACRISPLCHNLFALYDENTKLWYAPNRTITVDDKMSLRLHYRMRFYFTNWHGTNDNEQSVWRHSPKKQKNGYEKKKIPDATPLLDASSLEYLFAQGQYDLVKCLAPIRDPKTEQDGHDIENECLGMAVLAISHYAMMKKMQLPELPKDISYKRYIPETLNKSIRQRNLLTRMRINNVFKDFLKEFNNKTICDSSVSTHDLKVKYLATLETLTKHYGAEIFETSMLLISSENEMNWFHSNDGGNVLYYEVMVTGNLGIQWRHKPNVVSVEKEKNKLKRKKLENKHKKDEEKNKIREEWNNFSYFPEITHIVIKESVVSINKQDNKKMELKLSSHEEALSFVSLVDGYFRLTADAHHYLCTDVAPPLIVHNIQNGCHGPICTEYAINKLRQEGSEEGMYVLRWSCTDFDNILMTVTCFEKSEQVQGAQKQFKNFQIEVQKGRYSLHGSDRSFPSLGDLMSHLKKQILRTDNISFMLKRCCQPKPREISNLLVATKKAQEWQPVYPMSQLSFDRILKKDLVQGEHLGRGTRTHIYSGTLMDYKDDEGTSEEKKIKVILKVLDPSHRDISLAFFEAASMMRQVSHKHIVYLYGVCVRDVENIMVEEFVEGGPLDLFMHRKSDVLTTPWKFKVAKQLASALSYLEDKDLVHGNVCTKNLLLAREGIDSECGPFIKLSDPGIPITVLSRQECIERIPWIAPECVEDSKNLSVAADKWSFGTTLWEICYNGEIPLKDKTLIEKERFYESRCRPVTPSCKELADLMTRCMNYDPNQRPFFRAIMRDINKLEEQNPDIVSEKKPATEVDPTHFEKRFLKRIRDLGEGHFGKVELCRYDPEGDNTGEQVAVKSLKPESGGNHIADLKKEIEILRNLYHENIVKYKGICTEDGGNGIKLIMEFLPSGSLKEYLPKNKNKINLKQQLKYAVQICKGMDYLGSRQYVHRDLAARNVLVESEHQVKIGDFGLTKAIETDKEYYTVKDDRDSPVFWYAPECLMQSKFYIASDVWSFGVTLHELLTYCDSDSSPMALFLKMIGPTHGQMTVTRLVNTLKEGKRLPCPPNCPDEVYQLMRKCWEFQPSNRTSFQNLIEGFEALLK

C/C=C/C(=O)Nc1cccc(CNc2c(C(N)=O)cnn3cccc23)c1
IC50 [1]: 1420 nM | IC50 [2]: > 2000 nM | IC50 [3]: 175 nM | IC50 [4]: > 2000 nM | IC50 (T-cell): 26600 nM

NC(=O)c1cnn2cccc2c1NCc1cccc(NC(=O)COc2c(F)c(F)c(F)c(F)c2F)c1
IC50 [1]: > 2000 nM | IC50 [2]: > 2000 nM | IC50 [3]: 743 nM | IC50 [4]: > 2000 nM | IC50 (T-cell): 15400 nM

CN(C)/C=C(/C#N)C(=O)Nc1cccc(CNc2c(C(N)=O)cnn3cccc23)c1
IC50 [1]: > 2000 nM | IC50 [2]: > 2000 nM | IC50 [3]: 942 nM | IC50 [4]: > 2000 nM | IC50 (T-cell): 14400 nM

C=CS(=O)(=O)Nc1cccc(CNc2c(C(N)=O)cnn3cccc23)c1
IC50 [1]: 974 nM | IC50 [2]: 1270 nM | IC50 [3]: 3.5 nM | IC50 [4]: > 2000 nM | IC50 (T-cell): 6700 nM

CCC(=O)Nc1cccc(CNc2cc(Nc3ccccc3)ncc2C(N)=O)c1
IC50 [3]: 100 nM | inhibition [5]: Active

N#CCC(=O)Nc1cccc(CNc2c(C(N)=O)cnn3cccc23)c1
IC50 [1]: 264 nM | IC50 [2]: 658 nM | IC50 [3]: 35 nM | IC50 [4]: 2000 nM | IC50 (T-cell): 8450 nM

NC(=O)c1cnn2cc(-c3ccccc3)cc2c1NCc1ccccc1
IC50 [1]: 214 nM | IC50 [2]: 438 nM | IC50 [3]: 14 nM | IC50 [4]: 118 nM

NC(=O)c1cnn2cccc2c1NCc1cccc(NC(=O)Cn2sc3ccccc3c2=O)c1
IC50 [1]: 196 nM | IC50 [2]: 745 nM | IC50 [3]: 30 nM | IC50 [4]: 240 nM | IC50 (T-cell): 5480 nM

C=CC(=O)Nc1cccc(CNc2cc(Nc3ccccc3)ncc2C(N)=O)c1
IC50 [1]: 1100 nM | IC50 [2]: 1300 nM | IC50 [3]: < 1 nM | IC50 [4]: > 5000 nM | IC50 (T-cell): 22 nM | IC50 (JAK3/JAK1): 51 nM | IC50 (Blood): 490 nM | IC50 [6]: 11000 nM | IC50 (JAK1/TYK2): 4900 nM | IC50 [7]: 180 nM | IC50 [8]: > 2500 nM | IC50 [9]: > 10000 nM | EC50 [10]: 19800 nM | EC50 [11]: 6560 nM | EC50 [12]: 2890 nM | EC50 [13]: 1580 nM | TDI [14]: Active | IC50 [15]: > 10000 nM | bioavailability [16]: < 30% | TDI [17]: Active

C=CC(=O)Nc1cccc(CNc2c(C(N)=O)cnn3cccc23)c1
IC50 [1]: 1700 nM | IC50 [2]: > 2000 nM | IC50 [3]: 1.3 nM | IC50 [4]: > 2000 nM | IC50 (T-cell): 55 nM | IC50 (Blood): 2300 nM

NC(=O)c1cnc(Nc2ccccc2)cc1NCc1ccccc1
IC50 [1]: 219 nM | IC50 [2]: 203 nM | IC50 [4]: 774 nM
